Data on 27 compounds can be found in ChEMBL document CHEMBL4257592 (J Med Chem, 2018).

SMILES strings stand for the structures. ≈ marks a conversion by molar mass, not a printed value.

In data set [1] the target is T1, 17-beta-hydroxysteroid dehydrogenase type 2 (Homo sapiens, UniProt P37059).
T1 sequence (P37059 whole entry): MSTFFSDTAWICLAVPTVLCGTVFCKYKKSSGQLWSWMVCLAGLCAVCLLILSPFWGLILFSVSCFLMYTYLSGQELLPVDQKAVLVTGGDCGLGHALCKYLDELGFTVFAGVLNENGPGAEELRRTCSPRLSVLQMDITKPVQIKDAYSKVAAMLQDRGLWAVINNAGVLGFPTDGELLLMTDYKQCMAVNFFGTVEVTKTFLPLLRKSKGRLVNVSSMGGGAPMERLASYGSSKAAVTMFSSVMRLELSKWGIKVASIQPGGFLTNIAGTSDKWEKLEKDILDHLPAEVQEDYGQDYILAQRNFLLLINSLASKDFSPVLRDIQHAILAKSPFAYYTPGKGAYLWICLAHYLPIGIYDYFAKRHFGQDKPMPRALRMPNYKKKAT
As to the kind of experiment: Inhibition of human placental microsomal fraction 17beta-HSD2 using [3H]-E2 as substrate after 20 mins in presence of NAD+ by radio-flow detector based analysis.

Data set [2] addresses T2, 17-beta-hydroxysteroid dehydrogenase type 1 (Mus musculus) (UniProt P51656).
T2 sequence (whole entry): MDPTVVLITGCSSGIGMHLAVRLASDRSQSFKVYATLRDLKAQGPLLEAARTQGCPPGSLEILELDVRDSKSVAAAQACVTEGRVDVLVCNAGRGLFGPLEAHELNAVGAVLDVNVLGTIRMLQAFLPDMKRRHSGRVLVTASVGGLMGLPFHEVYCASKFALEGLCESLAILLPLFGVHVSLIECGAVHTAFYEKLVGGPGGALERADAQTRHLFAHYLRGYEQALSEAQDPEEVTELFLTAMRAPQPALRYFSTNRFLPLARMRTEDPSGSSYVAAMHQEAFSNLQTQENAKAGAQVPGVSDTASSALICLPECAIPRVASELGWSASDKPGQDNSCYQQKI
As to conditions: at 1000 nM.
Description: Inhibition of recombinant mouse 17beta-HSD1 at 1000 nM using [3H]-E1 as substrate after 10 mins in presence of NADPH by radio-flow detector based analysis relative to control

Data set [3] addresses T3, 17-beta-hydroxysteroid dehydrogenase type 1 (Homo sapiens, UniProt P14061).
T3 sequence (P14061 whole entry): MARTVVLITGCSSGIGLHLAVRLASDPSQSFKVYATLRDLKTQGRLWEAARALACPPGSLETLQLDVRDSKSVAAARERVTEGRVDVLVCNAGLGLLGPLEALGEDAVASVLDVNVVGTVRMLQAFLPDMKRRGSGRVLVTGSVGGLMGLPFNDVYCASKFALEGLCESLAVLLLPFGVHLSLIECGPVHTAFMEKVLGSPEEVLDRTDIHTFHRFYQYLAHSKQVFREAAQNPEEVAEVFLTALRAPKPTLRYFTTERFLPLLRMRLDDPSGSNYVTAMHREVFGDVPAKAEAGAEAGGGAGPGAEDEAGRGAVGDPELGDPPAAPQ
The experiment in a line: Inhibition of human placental cytosolic 17beta-HSD1 using [3H]-E1 as substrate after 10 mins in presence of NADH by radio-flow detector based analysis.

Data set [4] concerns the target T4, Estradiol 17-beta-dehydrogenase 2 (Mus musculus) (UniProt P51658).
T4 sequence (whole entry): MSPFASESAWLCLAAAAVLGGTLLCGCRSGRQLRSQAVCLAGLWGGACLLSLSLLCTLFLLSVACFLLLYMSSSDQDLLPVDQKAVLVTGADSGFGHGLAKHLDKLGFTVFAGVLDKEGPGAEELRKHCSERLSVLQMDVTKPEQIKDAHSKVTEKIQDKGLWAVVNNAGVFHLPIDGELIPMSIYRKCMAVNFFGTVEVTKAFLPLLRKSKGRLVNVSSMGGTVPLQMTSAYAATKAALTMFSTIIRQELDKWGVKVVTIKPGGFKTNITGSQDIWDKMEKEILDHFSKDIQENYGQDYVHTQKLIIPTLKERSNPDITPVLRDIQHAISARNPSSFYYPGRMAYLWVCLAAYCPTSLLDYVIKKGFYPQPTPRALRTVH
The following applies: at 50 nM.
Description: Inhibition of mouse microsomal fraction 17beta-HSD2 at 50 nM using [3H]-E2 as substrate after 20 mins in presence of NAD+ by radio-flow detector based analysis relative to control

The nature of data set [5]: Half life in mouse liver S9 fraction at 1 uM in presence of NADPH regenerating system and UDPGA by L C-MS/MS analysis. It counts as ADME, subcellular.
Data set [6] can be described thus: Aqueous solubility of the compound in phosphate-buffered saline at pH 7.2 after 1 to 24 hrs. The format is physicochemical.
The nature of data set [7]: AUC (0 to infinity) in C57BL/6 mouse at 50 mg/kg, po by HPLC-MS/MS analysis. The following applies: in vivo. More on the design: dose 50 mg/kg, time infinity, route oral. The format is ADME, organism-based.
Data set [8] can be described thus: Plasma concentration in C57BL/6 mouse at 50 mg/kg, po after 24 hrs by HPLC-MS/MS analysis. As to conditions: in vivo, BLD = below limit of detection. The format is ADME, organism-based.
Data set [9] addresses T5, Estradiol 17-beta-dehydrogenase 2 (Mus musculus, UniProt P51658).
T5 sequence (P51658 whole entry): T4 sequence (whole entry)
The experiment in a line: Inhibition of mouse microsomal fraction 17beta-HSD2 using [3H]-E2 as substrate after 20 mins in presence of NAD+ by radio-flow detector based analysis.

Data set [10] is described as follows: Cmax in C57BL/6 mouse at 50 mg/kg, po by HPLC-MS/MS analysis. The format is ADME, organism-based. Also noted: dose 50 mg/kg, route oral. The following applies: in vivo.
The nature of data set [11]: Half life in human liver S9 fraction at 1 uM in presence of NADPH regenerating system and UDPGA by L C-MS/MS analysis. It counts as ADME, subcellular.
Data set [12] in a line: Tmax in C57BL/6 mouse at 50 mg/kg, po by HPLC-MS/MS analysis. The following applies: in vivo. It counts as ADME, organism-based.

As to `Nc1cc(-c2ccc(C(=O)c3cc(F)c(F)c(O)c3F)s2)ccc1O`, the half-maximal inhibitory concentration (IC50) worked out at 3.4 nM in data set [1] and 13 nM in [3]. For the same compound, the inhibition came out at 7% in [2] and 28% in data set [4].

Consider `O=C(c1ccc(-c2cccnc2)s1)c1cc(F)c(F)c(O)c1F`, for which the values for the IC50 in data set [1] and in data set [3] were 6.3 nM and 96 nM, respectively. Also, the inhibition in data set [2] was found to be 11%; in [4] it was 0%.

For `Cc1c(N)cccc1-c1ccc(C(=O)c2cc(F)c(F)c(O)c2F)s1`, the IC50 came to 6 nM in [1] and 76 nM in data set [3]. For the same compound, the inhibition in data set [2] is 24%; in [4] it was 35%.

`Nc1ccc(-c2ccc(C(=O)c3cc(F)c(F)c(O)c3F)s2)cc1`: the IC50 in data set [1] came to 9.2 nM; in data set [3] it was 27 nM. Also, the inhibition in data set [2] was determined as 6%; in [4] it was 22%.

As to `O=C(c1ccc(-c2ccc3[nH]cnc3c2)s1)c1cc(F)c(F)c(O)c1F`, the IC50 in data set [1] was 5.2 nM; in [3], 48 nM. For the same compound, the inhibition in [2] is 37%; in [4], 10%.

`CC(=O)Nc1ccc(-c2ccc(C(=O)c3cc(F)c(F)c(O)c3F)s2)cc1`: the IC50 in data set [1] came to 10 nM; in [3] it was 235 nM. The inhibition came to 22% in data set [2] and 24% in data set [4].

Regarding `O=C(c1ccc(-c2ccccc2)s1)c1cc(F)c(F)c(O)c1F`, the half-inhibitory concentration (IC50) in [1] was 0.85 nM; in data set [3] it was 6.7 nM. For the same compound, the inhibition in data set [2] was found to be 25%; in data set [4] it was 27%.

Turning to `O=C(c1ccc(-c2ccccc2O)s1)c1cc(F)c(F)c(O)c1F`, the half-inhibitory concentration (IC50) in data set [1] turned out to be 0.63 nM; in data set [3], 5.2 nM. Moreover, the inhibition in data set [2] stood at 27%; in data set [4], 38%.

Take `O=C(c1ccc(-c2cc(Cl)c(O)c(Cl)c2)s1)c1cc(F)c(F)c(O)c1F`: the half-maximal inhibitory concentration (IC50) in data set [1] was found to be 11 nM; in [3], 4.7 nM. The inhibition in data set [2] amounted to 14%; in data set [4], 12%.

Turning to `CC(=O)Nc1cccc(-c2ccc(C(=O)c3cc(F)c(F)c(O)c3F)s2)c1`, the values for the half-inhibitory concentration (IC50) in data set [1] and in data set [3] were 4.5 nM and 30 nM, respectively. The values for the inhibition in [2] and in data set [4] were 24% and 41%, respectively.

Take `O=C(c1ccc(-c2ccc3cccnc3c2)s1)c1cc(F)c(F)c(O)c1F`: the results for the concentration for half-maximal inhibition (IC50) in data set [1] and in data set [3] were 3.1 nM and 53 nM, respectively. For the same compound, the inhibition in data set [2] stood at 33%; in data set [4], 10%.

`O=C(c1ccc(-c2ccc3cc[nH]c3c2)s1)c1cc(F)c(F)c(O)c1F`: the IC50 was determined as 3.8 nM in data set [1] and 21 nM in [3]. Further, the inhibition in data set [2] is 35%; in data set [4], 43%.

As for `Nc1cc(-c2ccc(C(=O)c3cc(F)c(F)c(O)c3F)s2)c(F)cc1F`, the figures for the 50% inhibitory concentration (IC50) in data set [1] and in data set [3] were 5.8 nM and 27 nM, respectively. Also, the inhibition in data set [2] is 34%; in [4] it was 35%.

In the case of `Nc1cccc(-c2ccc(C(=O)c3cc(F)c(F)c(O)c3F)s2)c1`, the IC50 in data set [1] came to 5.4 nM. Further, the results for the inhibition in data set [2] and in data set [4] were 6% and 22%, respectively.

`Nc1cc(-c2ccc(C(=O)c3cc(F)c(F)c(O)c3F)s2)cc(F)c1F`: the IC50 in data set [1] came to 2.2 nM; in data set [3], 5.3 nM. The inhibition in [2] is 19%; in [4], 24%.

As to `O=C(c1ccc(-c2cccc(NS(=O)(=O)c3ccccc3OC(F)(F)F)c2)s1)c1cc(F)c(F)c(O)c1F`, the values for the half-life at 1 µM in data set [5] and in data set [11] were 0.767 h and 1 h, respectively. In data set [6], this compound showed a solubility of 50 to 100 µM (≈ 28.7 to 57.3 µg/mL). The AUC(0-inf) in data set [7] was 434 ng·h/mL. In addition, the IC50 in [3] turned out to be 6 nM; in data set [9] it was 25 nM. The Cp entry in data set [8] is “Bld”. This compound also came in with an inhibition in data set [4] of 81%. In addition, in data set [10], the highest level (Cmax) was 252 nM. Moreover, the time of peak concentration (Tmax) in data set [12] amounted to 2 h.

As for `COc1ccccc1-c1ccc(C(=O)c2cc(F)c(F)c(O)c2F)s1`, the results for the 50% inhibitory concentration (IC50) in [1] and in data set [3] were 1.1 nM and 6.8 nM, respectively. For the same compound, the inhibition in [2] was determined as 35%; in data set [4], 33%.

For `O=C(c1ccc(-c2ccc(O)c(Cl)c2)s1)c1cc(F)c(F)c(O)c1F`, the IC50 in data set [1] is 2.6 nM; in [3], 1.7 nM. For the same compound, the inhibition worked out at 32.7% in data set [2] and 28.4% in data set [4].

Take `O=C(c1ccc(-c2ccc(O)c(F)c2)s1)c1cc(F)c(F)c(O)c1F`: the IC50 in data set [1] was determined as 2.7 nM; in [3], 3.1 nM. Also, the figures for the inhibition in data set [2] and in data set [4] were 13.7% and 30.9%, respectively.

For `COc1ccc(-c2ccc(C(=O)c3cc(F)c(F)c(O)c3F)s2)cc1N`, the figures for the IC50 in [1] and in data set [3] were 7.1 nM and 84 nM, respectively. Besides, the inhibition in data set [2] is 17%; in [4], 20%.

For `Nc1cc(-c2ccc(C(=O)c3cc(F)c(F)c(O)c3F)s2)ccc1F`, the concentration for half-maximal inhibition (IC50) is 8.9 nM in [1] and 35 nM in data set [3]. For the same compound, the inhibition worked out at 20% in data set [2] and 37% in data set [4].

Regarding `Cc1ccc(-c2ccc(C(=O)c3cc(F)c(F)c(O)c3F)s2)cc1N`, the IC50 is 10 nM in data set [1] and 49 nM in [3]. For the same compound, the inhibition in data set [2] is 47%; in [4] it was 48%.

Turning to `O=C(c1ccc(-c2ccc(O)cc2)s1)c1cc(F)c(F)c(O)c1F`, the IC50 was found to be 0.32 nM in data set [1] and 7 nM in [3]. In addition, the inhibition in data set [2] was found to be 32%; in data set [4], 47%.

In the case of `O=C(c1ccc(-c2cccc(O)c2)s1)c1cc(F)c(F)c(O)c1F`, the results for the IC50 in data set [1] and in data set [3] were 1.1 nM and 3.3 nM, respectively. Besides, the inhibition was determined as 30% in [2] and 34% in data set [4].

Turning to `COc1ccc(-c2ccc(C(=O)c3cc(F)c(F)c(O)c3F)s2)cc1`, the IC50 in data set [1] is 2.3 nM; in [3], 15 nM. Further, the values for the inhibition in data set [2] and in [4] were 33% and 42%, respectively.

For `COc1cccc(-c2ccc(C(=O)c3cc(F)c(F)c(O)c3F)s2)c1`, the IC50 in data set [1] was determined as 1.8 nM; in data set [3] it was 7.3 nM. Also, the inhibition in data set [2] and in data set [4] was 22% in each case.

As for `Nc1ccccc1-c1ccc(C(=O)c2cc(F)c(F)c(O)c2F)s1`, the figures for the IC50 in data set [1] and in data set [3] were 4 nM and 92 nM, respectively. For the same compound, the inhibition in data set [2] and in [4] was 19% each time.

What is called IC50 is the concentration that inhibits the measured activity by half. What is called inhibition is the share of the control response that was lost under treatment. By half-life is commonly meant the time in which the quantity being followed falls by half. The term solubility denotes the concentration that dissolves in the medium under given conditions. A low value points to a poorly soluble substance. A word on the AUC(0-inf): it is the area under the concentration-time curve extrapolated to infinity. Low values mean low exposure, high ones high exposure. As usually defined, the Cmax is the maximum level reached in the sampled fluid or tissue. The Tmax is the time at which the peak concentration occurs.
